From article PMC9655119, “Sustained Activation of CLR/RAMP Receptors by Gel-Forming Agonists” (International Journal of Molecular Sciences, 2022)
Where two headings read alike, the source gives them in different places.

Experiments:
Assay type in all cases: cell-based
[1] = tested on: primary human lymphatic microvascular endothelial (HLME) cells; assay: HLME cell survival (MTT assay); settings: 30, 100, 300 nmoles/L, medium with 0.1% FBS, 72 h, quintuplicate samples
Description: (§1) Primary human lymphatic microvascular endothelial cells (HLME cells; Cell Applications, Inc., San Diego, CA, USA) were maintained in a microvascular endothelial cell growth medium supplemented with 10% fetal bovine serum (FBS). […] After 72-h incubation, cell viability was determined with the 3-(4,5-dimethylthiazol-2-yl)-2,5-diphenyltetrazolium bromide (MTT) assay (Promega). To evaluate the effects on endothelial cell survival, HLME cells were treated with different concentrations of the agonist or controls (30, 100, and 300 nmoles/L) and cultured in a basal medium with 0.1% FBS for 72 h. Cell viability was then assayed with the MTT assay.

[2] = molecular target: T1, human CLR/RAMP1 (Homo sapiens, UniProt O60894+Q16602); assay: CLR/RAMP1 receptor-activation assay (DiscoverX cAMP Hunter, HitHunter cAMP XS+); settings: for Emax: read-out: CLR/RAMP1 Max Activity
T1 construct: host or cells: 1321N1 cells (cAMP Hunter cell line)
T1 sequence (Q16602 23-461): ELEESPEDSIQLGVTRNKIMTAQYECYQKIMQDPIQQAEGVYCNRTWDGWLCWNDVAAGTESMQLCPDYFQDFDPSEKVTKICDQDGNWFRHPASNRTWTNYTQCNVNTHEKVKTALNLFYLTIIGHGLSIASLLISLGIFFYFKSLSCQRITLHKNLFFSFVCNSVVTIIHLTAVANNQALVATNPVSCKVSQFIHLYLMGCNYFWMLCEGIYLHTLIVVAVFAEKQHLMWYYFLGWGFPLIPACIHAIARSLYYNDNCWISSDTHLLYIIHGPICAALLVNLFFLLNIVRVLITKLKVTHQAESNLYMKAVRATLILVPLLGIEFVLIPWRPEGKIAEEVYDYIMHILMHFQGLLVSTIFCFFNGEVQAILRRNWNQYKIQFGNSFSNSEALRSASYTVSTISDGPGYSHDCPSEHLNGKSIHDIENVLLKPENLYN
T1 sequence (O60894 27-148): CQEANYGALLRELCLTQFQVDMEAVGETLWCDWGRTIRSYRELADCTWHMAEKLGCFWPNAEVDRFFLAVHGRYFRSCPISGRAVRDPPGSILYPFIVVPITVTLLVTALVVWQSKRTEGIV
Description: (§2) The bioactivity of peptide analogs was studied using CLR/RAMP1, CLR/RAMP2, and CLR/RAMP3 assays by DiscoveRx (Fremont, CA, USA) in cells that stably express human CLR/RAMP1 (1321N1 cells), CLR/RAMP2 (CHO-K1 cells), or CLR/RAMP3 (CHO-K1 cells). The dose-dependent stimulatory effect of agonists was studied in duplicate, at 10 different concentrations. Determination of the half-maximal effective concentration (EC50) was performed using a 10-point dose-response curves. The starting concentration was 1.0 μM, and it was serially diluted 3-fold, in DMSO.
Cells were seeded in a total volume of 20 μL into 384-well microplates, and the activity was determined using the DiscoverX HitHunter cAMP XS + assay. Before the assay, media was aspirated from cells and replaced with 15 μL 2:1 HBSS/10 mM Hepes: cAMP XS + Ab reagent. Intermediate dilution of samples was performed to generate 4X sample in assay buffer, and 5 μL of the 4X sample was added to cells and incubated at 37°C. Vehicle concentration was 1%.
The chemiluminescent signal was read with a PerkinElmer instrument.

[3] = tested on: primary human lymphatic microvascular endothelial (HLME) cells; assay: HLME cell proliferation (MTT assay); settings: 30, 100, 300 nmoles/L, medium with 2% FBS, 72 h, quintuplicate samples
Description: as §1

[4] = molecular target: T2, human CLR/RAMP2 (Homo sapiens, UniProt O60895+Q16602); assay: CLR/RAMP2 receptor-activation assay (PathHunter β-Arrestin); settings: […], read-out: CLR/RAMP2 Max Activity
T2 construct: host or cells: CHO-K1 cells (PathHunter β-Arrestin cell line)
T2 sequence (Q16602 23-461): as the sequence (Q16602 23-461) above
T2 sequence (O60895 43-175): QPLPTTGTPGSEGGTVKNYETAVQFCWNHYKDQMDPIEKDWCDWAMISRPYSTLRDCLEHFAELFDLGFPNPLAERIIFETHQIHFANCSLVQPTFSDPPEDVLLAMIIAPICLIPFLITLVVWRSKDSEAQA
Description: as §2
In this assay, the CLR was fused in frame with a small enzyme donor fragment ProLink™ (PK). The receptor was co-expressed with a fusion protein of β-arrestin and an N-terminal deletion mutant of β-galactosidase (i.e., enzyme acceptor). Activation of the CLR/RAMP2 receptor stimulated the binding of β-arrestin to the PK-tagged receptor and led to an increase in enzyme activities which can then be measured with the PathHunter detection reagents. PathHunter cell lines were seeded in a total volume of 20 μL into 384-well microplates and incubated at 37 °C prior to the assay. Intermediate dilution of samples was performed to generate 5X samples in the assay buffer. A 5 μL aliquot of 5X sample was added to cells and incubated at 37 °C for 90 min. Vehicle concentration was 1%.

[5] = percentage of positive control β-CGRP

Structure (SMILES) | effect on HLME cell survival [1] | Emax [2, 5] [%] | effect on HLME cell proliferation [3] | EC50 ([2]; 1321N1 cells stably expressing human CLR/RAMP1, cAMP read-out, 10-point dose-response in duplicate, start 1.0 μM, 3-fold serial dilution in DMSO) [nM] | Emax ([4]; percentage of positive control ADM1-52) [%] | Emax [2] [%] | Emax [4] [%]
CC[C@H](C)[C@H](NC(=O)[C@H](CCC(N)=O)NC(=O)[C@H](Cc1c[nH]cn1)NC(=O)[C@H](C)NC(=O)[C@H](CC(C)C)NC(=O)[C@H](CCCCN)NC(=O)[C@H](CCC(N)=O)NC(=O)[C@@H](NC(=O)[C@@H](NC(=O)[C@@H]1CSSC[C@H](NC(=O)CNC(=O)[C@H](Cc2ccccc2)NC(=O)[C@H](CO)NC(=O)[C@H](CCCNC(=N)N)NC(=O)[C@H](CC(C)C)NC(=O)CNC(=O)[C@H](CCC(N)=O)NC(=O)[C@H](Cc2ccccc2)NC(=O)[C@H](CC(N)=O)NC(=O)[C@H](CC(N)=O)NC(=O)[C@H](CCSC)NC(=O)[C@H](CO)NC(=O)[C@H](CCC(N)=O)NC(=O)[C@H](CCCNC(=N)N)NC(=O)[C@@H](N)Cc2ccc(O)cc2)C(=O)N[C@@H](CCCNC(=N)N)C(=O)N[C@@H](Cc2ccccc2)C(=O)NCC(=O)N[C@@H]([C@@H](C)O)C(=O)N1)[C@@H](C)O)C(C)C)C(=O)N[C@@H](Cc1ccc(O)cc1)C(=O)N[C@@H](CCC(N)=O)C(=O)N[C@@H](Cc1ccccc1)C(=O)N[C@H](C(=O)N[C@@H](CC(=O)O)C(=O)N[C@@H](CCCCN)C(=O)N[C@@H](CC(=O)O)C(=O)N[C@@H](CCCCN)C(=O)N[C@@H](CC(=O)O)C(=O)N[C@@H](CC(N)=O)C(=O)N[C@H](C(=O)N[C@@H](C)C(=O)N1CCC[C@H]1C(=O)N[C@@H](CCCNC(=N)N)C(=O)N[C@@H](CO)C(=O)N[C@@H](CCCCN)C(=O)N[C@H](C(=O)N[C@@H](CO)C(=O)N1CCC[C@H]1C(=O)N[C@@H](CCC(N)=O)C(=O)NCC(=O)N[C@@H](Cc1ccc(O)cc1)C(N)=O)[C@@H](C)CC)C(C)C)[C@@H](C)O [ADM1-52] | minimal effects | 63 | minimal effects |  |  |  | 
CC[C@H](C)[C@H](NC(=O)[C@H](CCC(N)=O)NC(=O)[C@H](Cc1c[nH]cn1)NC(=O)[C@H](C)NC(=O)[C@H](CC(C)C)NC(=O)[C@H](CCCCN)NC(=O)[C@H](CCC(N)=O)NC(=O)[C@@H](NC(=O)[C@@H](NC(=O)[C@@H]1CSSC[C@H](NC(=O)CNC(=O)[C@@H](N)Cc2ccccc2)C(=O)N[C@@H](CCCNC(=N)N)C(=O)N[C@@H](Cc2ccccc2)C(=O)NCC(=O)N[C@@H]([C@@H](C)O)C(=O)N1)[C@@H](C)O)C(C)C)C(=O)N[C@@H](Cc1ccc(O)cc1)C(=O)N[C@@H](CCC(N)=O)C(=O)N[C@@H](Cc1ccccc1)C(=O)N[C@H](C(=O)N[C@@H](CC(=O)O)C(=O)N[C@@H](CCCCN)C(=O)N[C@@H](CC(=O)O)C(=O)N[C@@H](CCCCN)C(=O)N[C@@H](CC(=O)O)C(=O)N[C@@H](CC(N)=O)C(=O)N[C@H](C(=O)N[C@@H](C)C(=O)N1CCC[C@H]1C(=O)N[C@@H](CCCNC(=N)N)C(=O)N[C@@H](CO)C(=O)N[C@@H](CCCCN)C(=O)N[C@H](C(=O)N[C@@H](CO)C(=O)N1CCC[C@H]1C(=O)N[C@@H](CCC(N)=O)C(=O)NCC(=O)N[C@@H](Cc1ccc(O)cc1)C(N)=O)[C@@H](C)CC)C(C)C)[C@@H](C)O [ADM14-52, reference compound] | minimal effects | 69 | minimal effects | > 100 | 102 |  | 
CC[C@H](C)[C@H](NC(=O)[C@H](CCC(N)=O)NC(=O)[C@H](Cc1c[nH]cn1)NC(=O)[C@H](C)NC(=O)[C@H](CC(C)C)NC(=O)[C@H](CCCCN)NC(=O)[C@H](CCC(N)=O)NC(=O)[C@@H](NC(=O)[C@@H](NC(=O)[C@@H]1CSSC[C@H](NC(=O)CNC(=O)[C@H](CCCCN)NC(C)=O)C(=O)N[C@@H](CCCNC(=N)N)C(=O)N[C@@H](Cc2ccccc2)C(=O)NCC(=O)N[C@@H]([C@@H](C)O)C(=O)N1)[C@@H](C)O)C(C)C)C(=O)N[C@@H](Cc1ccc(O)cc1)C(=O)N[C@@H](CCC(N)=O)C(=O)N[C@@H](Cc1ccccc1)C(=O)N[C@H](C(=O)N[C@@H](CC(=O)O)C(=O)N[C@@H](CCCCN)C(=O)N[C@@H](CC(=O)O)C(=O)N[C@@H](CCCCN)C(=O)N[C@@H](CC(=O)O)C(=O)N[C@@H](CC(N)=O)C(=O)N[C@@H](CO)C(=O)N[C@@H](C)C(=O)N1CCC[C@H]1C(=O)N[C@H](C(=O)N[C@@H](CC(=O)O)C(=O)N1CCC[C@H]1C(=O)N[C@@H](CO)C(=O)N[C@@H](CO)C(=O)N1CCC[C@H]1C(=O)N[C@@H](Cc1c[nH]cn1)C(=O)N[C@@H](CO)C(=O)N[C@@H](Cc1ccc(O)cc1)C(N)=O)C(C)C)[C@@H](C)O [Analog B-6] | minimal effects |  |  |  |  |  | 
CCCCCCCCCCCCCCCC(=O)NCCCC[C@H](NC(=O)COCCOCCN)C(=O)NCC(=O)N[C@H]1CSSC[C@@H](C(=O)N[C@H](C(=O)N[C@H](C(=O)N[C@@H](CCC(N)=O)C(=O)N[C@@H](CCCCN)C(=O)N[C@@H](CC(C)C)C(=O)N[C@@H](C)C(=O)N[C@@H](Cc2c[nH]cn2)C(=O)N[C@@H](CCC(N)=O)C(=O)N[C@H](C(=O)N[C@@H](Cc2ccc(O)cc2)C(=O)N[C@@H](CCC(N)=O)C(=O)N[C@@H](Cc2ccccc2)C(=O)N[C@H](C(=O)N[C@@H](CC(=O)O)C(=O)N[C@@H](CCCCN)C(=O)N[C@@H](CC(=O)O)C(=O)N[C@@H](CCCCN)C(=O)N[C@@H](CC(=O)O)C(=O)N[C@@H](CC(N)=O)C(=O)N[C@H](C(=O)N[C@@H](CC(=O)O)C(=O)N2CCC[C@H]2C(=O)N[C@@H](CO)C(=O)N[C@@H](CO)C(=O)N2CCC[C@H]2C(=O)N[C@@H](Cc2c[nH]cn2)C(=O)N[C@@H](CO)C(=O)N[C@@H](Cc2ccc(O)cc2)C(N)=O)C(C)C)[C@@H](C)O)[C@@H](C)CC)C(C)C)[C@@H](C)O)NC(=O)[C@H]([C@@H](C)O)NC(=O)CNC(=O)[C@H](Cc2ccccc2)NC(=O)[C@H](CCCNC(=N)N)NC1=O [Analog D-4] |  |  |  |  |  | 67 | 82
CCCCCCCCCCCCCCCC(=O)NCCCC[C@H](NC(=O)COCCOCCN)C(=O)NCC(=O)N[C@H]1CSSC[C@@H](C(=O)N[C@H](C(=O)N[C@H](C(=O)N[C@@H](CCC(N)=O)C(=O)N[C@@H](CCCCN)C(=O)N[C@@H](CC(C)C)C(=O)N[C@@H](C)C(=O)N[C@@H](Cc2c[nH]cn2)C(=O)N[C@@H](CCC(N)=O)C(=O)N[C@H](C(=O)N[C@@H](Cc2ccc(O)cc2)C(=O)N[C@@H](CCC(N)=O)C(=O)N[C@@H](Cc2ccccc2)C(=O)N[C@H](C(=O)N[C@@H](CC(=O)O)C(=O)N[C@@H](CCCCN)C(=O)N[C@@H](CC(=O)O)C(=O)N[C@H](C(=O)N[C@@H](C)C(=O)N2CCC[C@H]2C(=O)N[C@@H](CCCNC(=N)N)C(=O)N[C@@H](CO)C(=O)N[C@@H](CCCCN)C(=O)N[C@H](C(=O)N[C@@H](CO)C(=O)N2CCC[C@H]2C(=O)N[C@@H](CCC(N)=O)C(=O)NCC(=O)N[C@@H](Cc2ccc(O)cc2)C(N)=O)[C@@H](C)CC)C(C)C)[C@@H](C)O)[C@@H](C)CC)C(C)C)[C@@H](C)O)NC(=O)[C@H]([C@@H](C)O)NC(=O)CNC(=O)[C@H](Cc2ccccc2)NC(=O)[C@H](CCCNC(=N)N)NC1=O [Analog D-6] |  |  |  |  |  | 56 | 74
